Measurements reported in patent US20180235900A1, “SUBCUTANEOUS RESERVOIR DEVICE AND METHOD OF MANUFACTURE” (Research Triangle Institute, priority 2017, published 2018).
Structures can show the parent of a compound that is named as a salt.

Assay: TAF stability in excipients (chromatographic purity by HPLC)
Type: physicochemical
Conditions: excess TAF dissolved in excipient at 37° C., quantified by HPLC
Protocol: Excipients on the FDA GRAS list of acceptable compounds were evaluated for TAF stability and short-duration TAF release. Devices containing TAF in combination with selected GRAS excipients were evaluated in prototype devices 60 days, presented in FIG. 8. […] Tocopherol was not chosen because of the high release rate of TAF near 3.5 mg/day.

## CC(C)OC(=O)[C@H](C)N[P@](=O)(CO[C@H](C)Cn1cnc2c(N)ncnc21)Oc1ccccc1 [TAF std., Tenofovir Alafenamide Fumarate]
  Chromatographic Purity: 99.88%
